Measurements from EP4707277A1, “NOVEL HETEROCYCLIC AMINE DERIVATIVES AND PHARMACEUTICAL COMPOSITION COMPRISING SAME” (Daewoong Pharmaceutical Co., Ltd., priority 2023, dated 2024).
Like-named read-outs stand apart in the source and are kept apart here.

Columns and labels:
BTK = biological target: T1, BTK (Homo sapiens, UniProt Q06187); experiment: Inhibitory activity against BTK, ADP-Glo Kinase system (Promega); assay type: biochemical
T1 construct: purchased Signalchem B10-10H
Description: (§1) Inhibitory activities against BTK and ITK were measured for the compounds prepared in the above Examples as follows.
(§2) The inhibitory activities against BTK and ITK were evaluated using 'ADP-Glo™ Kinase system' (Promega Corporation). In the case of this evaluation method, activation was measured by quantifying the amount of ADP produced during the kinase reaction, which was utilized to measure the inhibitory activities against BTK and ITK.
(§3) Specifically, the inhibitory activities against BTK and ITK were measured using BTK kinase (Signalchem, B10-10H), ITK kinase (Signalchem, I13-11G-10), and ADP-Glo kinase assay kit (Promega, V9102). Recombinant purified human BTK and ITK were diluted with 1 x kinase reaction buffer (40 mM Tris-Cl, pH 7.5, 20 mM MgCl2, 0.1 mg/mL BSA, 2 mM MnCl2 and 50 uM DTT) and added to a 96 well plate (ITK: final concentration of 4 ng per reaction/BTK: final concentration of 10 ng per reaction). The compounds prepared in the previous Examples were treated so as to be finally a 1% DMSO aqueous solution, and a substrate cocktail containing ATP (1mM or Km ATP (BTK: 10 uM /ITK: 25uM)) and 0.2 ug/ul of Poly (Glu4,Tyr1) peptide (BTK and ITK final concentration) in the total 25 uL reactants was added to a 96-well plate to initiate enzymatic reaction. After incubation (30°C) for 1 hour, equivalent volume (25 uL per reaction) of ADP Glo was added, and incubated (30°C) for 40 minutes at room temperature. Then, a kinase detection reagent (45 uL per reaction) was added, and incubated (30°C) for 30 minutes at room temperature. The kinase activity was measured by chemiluminescence according to the instructions of ADP Glo kinase assay kit, and the inhibitory activity of the compounds according to the present disclosure was calculated. For the analysis of the results of each compound, Microsoft Excel was used, and IC50 values were calculated by GraphPad Prism software.

ITK = biological target: T2, ITK (Homo sapiens, UniProt Q08881); experiment: Inhibitory activity against ITK, ADP-Glo Kinase system (Promega); assay type: biochemical
T2 construct: purchased Signalchem I13-11G-10
T2 sequence (Q08881 1-620): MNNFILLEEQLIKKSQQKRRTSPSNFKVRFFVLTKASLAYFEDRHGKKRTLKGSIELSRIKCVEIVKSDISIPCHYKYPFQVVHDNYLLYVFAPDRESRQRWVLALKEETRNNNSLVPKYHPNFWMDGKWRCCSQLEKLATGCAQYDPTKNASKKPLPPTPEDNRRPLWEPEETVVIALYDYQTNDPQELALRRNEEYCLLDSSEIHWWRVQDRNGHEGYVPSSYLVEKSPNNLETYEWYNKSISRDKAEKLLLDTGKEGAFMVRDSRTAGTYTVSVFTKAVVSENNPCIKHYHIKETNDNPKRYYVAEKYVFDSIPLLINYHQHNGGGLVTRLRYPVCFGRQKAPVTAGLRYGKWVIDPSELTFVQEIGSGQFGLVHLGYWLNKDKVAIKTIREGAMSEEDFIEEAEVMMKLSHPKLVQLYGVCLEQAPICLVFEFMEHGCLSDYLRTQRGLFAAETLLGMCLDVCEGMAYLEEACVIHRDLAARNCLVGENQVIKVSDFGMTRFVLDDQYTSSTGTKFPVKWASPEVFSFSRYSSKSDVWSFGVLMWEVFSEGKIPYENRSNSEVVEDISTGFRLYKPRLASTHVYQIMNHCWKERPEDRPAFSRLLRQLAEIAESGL
Description: as §1, §2, §3

[1] = 1mM ATP, read-out: BTK IC50(nM) 1mM ATP
[2] = 1mM ATP, read-out: ITK IC50(nM) 1mM ATP
[3] = Km ATP (BTK: 10 uM), read-out: BTK IC50(nM) Km ATP
[4] = Km ATP (ITK: 25uM), read-out: ITK IC50(nM) Km ATP

T1 sequence (Q06187 whole entry): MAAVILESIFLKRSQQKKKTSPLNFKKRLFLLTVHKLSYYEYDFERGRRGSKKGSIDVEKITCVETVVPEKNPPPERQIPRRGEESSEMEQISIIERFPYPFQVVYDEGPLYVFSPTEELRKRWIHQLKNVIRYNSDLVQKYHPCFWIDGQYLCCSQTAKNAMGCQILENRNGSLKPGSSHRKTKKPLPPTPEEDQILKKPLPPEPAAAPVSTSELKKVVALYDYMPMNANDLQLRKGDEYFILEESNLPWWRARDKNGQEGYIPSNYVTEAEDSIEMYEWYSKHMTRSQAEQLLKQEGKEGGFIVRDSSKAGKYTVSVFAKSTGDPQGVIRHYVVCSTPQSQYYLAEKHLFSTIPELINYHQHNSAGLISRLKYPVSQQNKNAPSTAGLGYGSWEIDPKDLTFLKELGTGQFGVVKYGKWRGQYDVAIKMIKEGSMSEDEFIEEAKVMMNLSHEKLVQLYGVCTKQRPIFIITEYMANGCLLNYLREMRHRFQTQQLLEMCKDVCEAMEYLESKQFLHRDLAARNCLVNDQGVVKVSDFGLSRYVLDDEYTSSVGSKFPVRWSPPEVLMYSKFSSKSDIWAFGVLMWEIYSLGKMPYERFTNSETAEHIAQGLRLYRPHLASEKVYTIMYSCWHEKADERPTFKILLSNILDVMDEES

SMILES	IC50 (BTK; [1]) [nM]	IC50 (ITK; [2]) [nM]	IC50 (BTK; [3]) [nM]	IC50 (ITK; [4]) [nM]
C=CC(=O)N1CC[C@H](Oc2nc(Nc3ncc(C)s3)cc3c2ccn3CC2CC2)C1 [Example 97, (S)-1-(3-((1-(cyclopropylmethyl)-6-((5-methylthiazol-2-yl)amino)-1H-pyrrolo[3,2-c]pyridin-4-yl)oxy)pyrrolidin-1-yl)prop-2-en-1-one]	≤ 20	≤ 20		
C=CC(=O)N1CC=C(c2nc(Nc3cc(C)ccn3)cc3c2ccn3C(C)C)CC1 [Example 49, 1-(4-(1-isopropyl-6-((4-methylpyridin-2-yl)amino)-1H-pyrrolo[3,2-c]pyridin-4-yl)-3,6-dihydropyridin-1(2H)-yl)prop-2-en-1-one]	100 to 500	100 to 500	20 to 100	20 to 100
C=CC(=O)N1C[C@@H](F)[C@H](Oc2nc(Nc3ncc(C)s3)cc3c2ccn3C(C)C)C1 [Example 91, 1-((3R,4R)-3-fluoro-4-((1-isopropyl-6-((5-methylthiazol-2-yl)amino)-1H-pyrrolo[3,2-c]pyridin-4-yl)oxy)pyrrolidin-1-yl)prop-2-en-1-one]	≤ 20	≤ 20		
C=CC(=O)Nc1cc(-c2nc(Nc3ncc(C)s3)cc3c2ccn3CC(F)(F)F)c(F)cc1F [Example 77, N-(2,4-difluoro-5-(6-((5-methylthiazol-2-yl)amino)-1-(2,2,2-trifluoroethyl)-1H-pyrrolo[3,2-c]pyridin-4-yl)phenyl)acrylamide]	≤ 20	20 to 100		
C=CC(=O)N1CCC[C@H]1COc1nc(Nc2ncc(C)s2)cc2c1ccn2CC(C)CC (stereo partly drawn) [Example 221, 1-((2S)-2-(((1-(2-methylbutyl)-6-((5-methylthiazol-2-yl)amino)-1H-pyrrolo[3,2-c]pyridin-4-yl)oxy)methyl)pyrrolidin-1-yl)prop-2-en-1-one]	≤ 20	20 to 100		
C=CC(=O)N1CC[C@H](Oc2nc(Nc3ncc(C)s3)cc3c2ccn3CC2(C(F)(F)F)CC2)C1 (stereo in doubt) [Example 102, (S)-1-(3-((6-((5-methylthiazol-2-yl)amino)-1-((1-(trifluoromethyl)cyclopropyl)methyl)-1H-pyrrolo[3,2-c]pyridin-4-yl)oxy)pyrrolidin-1-yl)prop-2-en-1-one]	≤ 20	≤ 20		
C=CC(=O)N1CC[C@@H]1COc1nc(Nc2ncc(C)s2)cc2c1ccn2C(C)C [Example 90, (R)-1-(2-(((1-isopropyl-6-((5-methylthiazol-2-yl)amino)-1H-pyrrolo[3,2-c]pyridin-4-yl)oxy)methyl)azetidin-1-yl)prop-2-en-1-one]	≤ 20	≤ 20		
C=CC(=O)N1CC[C@H](Oc2nc(Nc3ncc(C)s3)cc3c2ccn3CC(F)(F)F)C1 [Example 205, (S)-1-(3-((6-((5-methylthiazol-2-yl)amino)-1-(2,2,2-trifluoroethyl)-1H-pyrrolo[3,2-c]pyridin-4-yl)oxy)pyrrolidin-1-yl)prop-2-en-1-one]	≤ 20	≤ 20		
C=CC(=O)Nc1ccc(F)c(-c2nc(Nc3ncc(C)s3)cc3c2ccn3CC(F)(F)F)c1 [Example 78, N-(4-fluoro-3-(6-((5-methylthiazol-2-yl)amino)-1-(2,2,2-trifluoroethyl)-1H-pyrrolo[3,2-c]pyridin-4-yl)phenyl)acrylamide]	≤ 20	20 to 100		
C=CC(=O)N1CCC[C@H]1COc1nc(Nc2ncc(C)s2)cc2c1ccn2C(C)C [Example 219, (S)-1-(2-(((1-isopropyl-6-((5-methylthiazol-2-yl)amino)-1H-pyrrolo[3,2-c]pyridin-4-yl)oxy)methyl)pyrrolidin-1-yl)prop-2-en-1-one]	20 to 100	> 500		
C=CC(=O)N1C[C@H](F)[C@H](Oc2nc(Nc3ncc(C)s3)cc3c2ccn3[C@@H](C)CC)C1 [Example 112, 1-((3R,4S)-3-((1-((S)-sec-butyl)-6-((5-methylthiazol-2-yl)amino)-1H-pyrrolo[3,2-c]pyridin-4-yl)oxy)-4-fluoropyrrolidin-1-yl)prop-2-en-1-one]	≤ 20	≤ 20		
C=CC(=O)N1CCC=C(c2nc(Nc3ncc(C)s3)cc3c2ccn3C(C)C)CC1 [Example 26, 1-(4-(1-isopropyl-6-((5-methylthiazol-2-yl)amino)-1H-pyrrolo[3,2-c]pyridin-4-yl)-2,3,6,7-tetrahydro-1H-azepin-1-yl)prop-2-en-1-one]			≤ 20	≤ 20
C=CC(=O)N1CCC1COc1nc(Nc2ncc(C)s2)cc2c1ccn2C1CCCC1 (centres unmarked) [Example 218, 1-(2-(((1-cyclopentyl-6-((5-methylthiazol-2-yl)amino)-1H-pyrrolo[3,2-c]pyridin-4-yl)oxy)methyl)azetidin-1-yl)prop-2-en-1-one]	≤ 20	≤ 20		
C=CC(=O)N1CC[C@H](Oc2nc(Nc3ncc(C)s3)cc3c2ccn3CCCC)C1 [Example 124, (S)-1-(3-((1-butyl-6-((5-methylthiazol-2-yl)amino)-1H-pyrrolo[3,2-c]pyridin-4-yl)oxy)pyrrolidin-1-yl)prop-2-en-1-one]			≤ 20	≤ 20
Cc1cnc(Nc2cc3c(ccn3CC(C)C)c(O[C@H]3CCN(C(=O)/C=C/CN(C)C)C3)n2)s1 [Example 227, (S,E)-4-(dimethylamino)-1-(3-((1-isobutyl-6-((5-methylthiazol-2-yl)amino)-1H-pyrrolo[3,2-c]pyridin-4-yl)oxy)pyrrolidin-1-yl)but-2-en-1-one]	> 500	> 500		
C=CC(=O)N1CCC[C@H]1COc1nc(Nc2ncc(C)s2)cc2c1ccn2CC1CCCC1 [Example 220, (S)-1-(2-(((1-(cyclopentylmethyl)-6-((5-methylthiazol-2-yl)amino)-1H-pyrrolo[3,2-c]pyridin-4-yl)oxy)methyl)pyrrolidin-1-yl)prop-2-en-1-one]	≤ 20	20 to 100		
C=CC(=O)N1CC[C@H](Oc2nc(Nc3ncc(C)s3)cc3c2ccn3[C@H](C)C(F)(F)F)C1 [Example 213, 1-((S)-3-((6-((5-methylthiazol-2-yl)amino)-1-((R)-1,1,1-trifluoropropan-2-yl)-1H-pyrrolo[3,2-c]pyridin-4-yl)oxy)pyrrolidin-1-yl)prop-2-en-1-one]	≤ 20	≤ 20		
C=CC(=O)N1C[C@H](F)[C@H](Oc2nc(Nc3cc(F)ccc3C)cc3c2ccn3C)C1 [Example 139, 1-((3S,4R)-3-fluoro-4-((6-((5-fluoro-2-methylphenyl)amino)-1-methyl-1H-pyrrolo[3,2-c]pyridin-4-yl)oxy)pyrrolidin-1-yl)prop-2-en-1-one]	> 500	> 500		
C=CC(=O)N1CC=C(c2nc(Nc3ncc(C)s3)cc3c2ccn3[C@H](C)CC)CC1 [Example 14, (R)-1-(4-(1-(sec-butyl)-6-((5-methylthiazol-2-yl)amino)-1H-pyrrolo[3,2-c]pyridin-4-yl)-3,6-dihydropyridin-1(2H)-yl)prop-2-en-1-one]			≤ 20	≤ 20
C=CC(=O)Nc1cccc(-c2nc(Nc3ncc(C)s3)cc3c2ccn3CC2CCOCC2)c1F [Example 73, N-(2-fluoro-3-(6-((5-methylthiazol-2-yl)amino)-1-((tetrahydro-2H-pyran-4-yl)methyl)-1H-pyrrolo[3,2-c]pyridin-4-yl)phenyl)acrylamide]			≤ 20	≤ 20
C=CC(=O)N1C[C@@H](F)[C@H](Oc2nc(Nc3ncc(C)s3)cc3c2ccn3C[C@H](C)CC)C1 [Example 174, 1-((3R,4R)-3-fluoro-4-((1-((R)-2-methylbutyl)-6-((5-methylthiazol-2-yl)amino)-1H-pyrrolo[3,2-c]pyridin-4-yl)oxy)pyrrolidin-1-yl)prop-2-en-1-one]	≤ 20	≤ 20		
